Where two headings read alike, the source gives them in different places.
How the values were obtained:
[1] = tested on: SIRPα signalling induced by A549 cells; experiment: Assay B: SIRPα signalling assay using A549 cells; type: cell-based, human
Method: Two cell types are independently used: the Raji cell line (lymphoblastlike human cell line derived from B lymphocytes from a Burkitt's lymphoma patient in 1963) and A549 cells (adenocarcinomic human alveolar basal epithelial cells).
Test compounds were dissolved in 100% DMSO and serially diluted into a white 384-well microtiter cell culture plate (PerkinElmer #60076780 in case of Raji assay; PDL-coated plates Greiner #781945 in case of A549 assay). 5000 Raji cells (ATCC #CC86) or 5000 A549 cells (ATCC #CCL-185) in Assay Complete Cell Plating reagent 30 (DiscoverX 93-0563R30B) were added per well. The assay plate was incubated for 48 h at 37° C., 95% humidity and 5% CO2. 15000 reporter cells (Jurkat PathHunter SIRPα V1, DiscoverX #93-1135C19) were added to each well, and the plate was incubated for 5 h at 37° C., 95% humidity and 5% CO2. Bioassay reagent 1 of the PathHunter Bioassay detection kit (DiscoverX 93-0001) was added to each well of the plate using a multichannel pipette followed by a 15 min incubation at room temperature. Afterwards bioassay reagent 2 was added followed by 60 min incubation at room temperature (incubation in the dark).
The analysis of the data was performed using the luminescence signal generated by beta-galactosidase in the PathHunter reporter cell line. The luminescence measurement was done using a Pherastar Multi-Mode Reader. Dose-response curves & IC50 data were calculated with 4-parameter sigmoidal dose response formula.

QPCT = QPCT (Homo sapiens (Human), UniProt Q16769); experiment: Assay A: biochemical QPCT activity assay (MALDI-TOF MS); details: read-out: Inhibition of QPCT: IC50
Method: (§1) QPCT or QPCTL dependent conversion of N-terminal glutamine to pyroglutamate of CD47 was monitored via MALDI-TOF MS. Test compounds were dissolved in 100% DMSO and serially diluted into clear 1,536-well microtiter plates. Enzymatic reactions were set up in assay buffer containing 20 mM Tris pH 7.5, 0.1 mM TCEP, 0.01% BSA, and 0.001% Tween20. […] The plates were incubated for 10 min in a humidified incubator at 24° C. Subsequently, 2.5 μL of CD47 peptide substrate surrogate (^19[…]^33) was added to each well (final concentration: 10 μM for QPCTL/20 μM for QPCT). The plates were mixed for 30 sec at 1,000 rpm and subsequently incubated for 40 min in a humidified incubator at 24° C. […] The plates were sealed with an adhesive foil, mixed for 30 s at 1,000 rpm and stored at room temperature until preparation of the MALDI target plates. […] QPCT or QPCTL activity was monitored by calculating the ratio between product and internal standard signals followed by normalization to high (100% activity) and low (0% activity) controls. Determination of compound potencies was obtained by fitting the dose-response data to a four-parameter logistical equation.

Caco-2 cells = experiment: Assay C: permeability in CACO-2 cells; type: in vitro ADME; details: prior art compounds, Table 8; for Permeability A-B: Caco-2, apical to basolateral
Method: (§2) Compounds are dissolved in appropriate solvent (like DMSO, 1-20 mM stock solutions). […] The transport solution (TL) is applied to the apical or basolateral donor side for measuring A-B or B-A permeability (3 filter replicates), respectively. Samples are collected at the start and end of experiment from the donor and at various time intervals for up to 2 hours also from the receiver side for concentration measurement by HPLC-MS/MS or scintillation counting. Sampled receiver volumes are replaced with fresh receiver solution.

QPCTL = QPCTL (Homo sapiens (Human), UniProt Q9NXS2); experiment: Assay A: biochemical QPCTL activity assay (MALDI-TOF MS); details: read-out: Inhibition of QPCTL: IC50
Method: as §1

[2] = tested on: SIRPα signalling induced by Raji cells; experiment: Assay B: SIRPα signalling assay using Raji cells; type: cell-based, human
Method: Bioassay reagent 1 of the PathHunter Bioassay detection kit (DiscoverX 93-0001) was added to each well of the plate using a multichannel pipette followed by a 15 min incubation at room temperature. Afterwards bioassay reagent 2 was added followed by 60 min incubation at room temperature (incubation in the dark).
The analysis of the data was performed using the luminescence signal generated by beta-galactosidase in the PathHunter reporter cell line. The luminescence measurement was done using a Pherastar Multi-Mode Reader.

[3] = Assay C: permeability in CACO-2 cells; type: in vitro ADME; details: human, pH 7.2, compounds of the invention, Table 7; for Papp A→B: Caco-2, apical to basolateral; for efflux ratio: Caco-2
Method: as §2

[4] = prior art compounds, Table 5, read-out: Inhibition of SIRPα signalling induced by A549 cells: IC50
[5] = prior art compounds, Table 5, read-out: Inhibition of SIRPα signalling induced by Raji cells: IC50
[6] = Homo sapiens, compounds of the invention, Table 4, read-out: Inhibition of SIRα signalling induced by A549 cells: IC50
[7] = compounds of the invention, Table 2
[8] = Homo sapiens, compounds of the invention, Table 4, read-out: Inhibition of SIRα signalling induced by Raji cells: IC50

QPCTL, sequence (Q9NXS2 whole entry): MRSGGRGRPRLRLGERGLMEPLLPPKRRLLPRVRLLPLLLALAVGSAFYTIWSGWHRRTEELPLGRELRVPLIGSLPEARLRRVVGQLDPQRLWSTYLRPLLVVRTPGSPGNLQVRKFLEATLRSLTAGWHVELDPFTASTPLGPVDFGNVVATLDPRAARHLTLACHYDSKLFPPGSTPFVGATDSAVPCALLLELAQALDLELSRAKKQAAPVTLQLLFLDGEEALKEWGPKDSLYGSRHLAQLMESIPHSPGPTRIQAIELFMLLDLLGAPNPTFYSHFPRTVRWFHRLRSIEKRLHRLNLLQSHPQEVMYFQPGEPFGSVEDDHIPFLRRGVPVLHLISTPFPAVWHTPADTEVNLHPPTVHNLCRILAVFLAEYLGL
QPCT, sequence (Q16769 29-361): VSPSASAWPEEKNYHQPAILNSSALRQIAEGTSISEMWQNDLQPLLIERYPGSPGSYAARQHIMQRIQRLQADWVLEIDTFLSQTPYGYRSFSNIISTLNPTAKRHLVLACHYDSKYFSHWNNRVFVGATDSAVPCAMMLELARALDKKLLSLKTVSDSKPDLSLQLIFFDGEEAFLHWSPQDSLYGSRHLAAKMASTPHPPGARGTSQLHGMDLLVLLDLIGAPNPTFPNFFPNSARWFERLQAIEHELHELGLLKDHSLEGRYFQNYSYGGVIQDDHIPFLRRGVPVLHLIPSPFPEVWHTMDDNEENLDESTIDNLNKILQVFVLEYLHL

Row | Structure (SMILES) | IC50 [1, 4] | IC50 (QPCT; prior art compounds, Table 3) | Permeability A-B (Caco-2 cells) | efflux ratio (Caco-2 cells; Caco-2) | IC50 (QPCTL; prior art compounds, Table 3) | IC50 [2, 5] | IC50 [1, 6] | IC50 (QPCT; [7]) | Papp A→B [3] | efflux ratio [3] | IC50 (QPCTL; [7]) | IC50 [2, 8]
1 | Nc1ncc(C2CCN(c3ncccc3-c3ccc(F)nc3)CC2)s1 [compound 1094, reference compound] | 3060 nM | 1710 nM | 68 10^−6 cm/s | 0.5 | 111 nM | 3240 nM | – | – | – | – | – | –
2 | Cn1cnnc1C1CCN(c2ncccc2-c2ccc(F)nc2)CC1 [SEN177, reference compound] | 214 nM | – | 11.0 10^−6 cm/s | – | – | 1360 nM | – | – | – | – | – | –
3 | Cn1cnnc1C1CCN(c2c(C#N)cccc2-c2cncc(C3CC3)c2)CC1 [compound 15] | – | – | – | – | – | – | 303 nM | 105 nM | 10.3 ×10⁻⁶ cm/s | 8.7 | 28 nM | 736 nM
4 | Cn1cnnc1C1(F)CCN(c2c(C#N)cccc2-c2cnn3ncccc23)CC1 [compound 70] | – | – | – | – | – | – | 74 nM | 2 nM | 14 ×10⁻⁶ cm/s | 2.4 | 5 nM | 79 nM
5 | Cn1cnnc1C1CCN(c2c(C#N)cccc2-c2cnc(F)c(OC3CC3)c2)CC1 [compound 47] | – | – | – | – | – | – | 53 nM | 8 nM | 13 ×10⁻⁶ cm/s | 6 | 2 nM | 77 nM
6 | Cn1cnnc1C1(F)CCN(c2c(C#N)cccc2-c2cnc(=O)n(Cc3ccccc3)c2)CC1 [compound 59] | – | – | – | – | – | – | 619 nM | 8 nM | 0.4 ×10⁻⁶ cm/s | 34.1 | 2 nM | 746 nM
7 | Cn1cnnc1C1CCN(c2c(C#N)cccc2-c2cncnc2)CC1 [compound 13] | – | – | – | – | – | – | 165 nM | 52 nM | 1.6 ×10⁻⁶ cm/s | 11.9 | 15 nM | 782 nM
8 | Cn1cnnc1C1CCN(c2c(C#N)cccc2-c2cnc3c(c2)OCO3)CC1 [compound 25] | – | – | – | – | – | – | 339 nM | 84 nM | 7.4 ×10⁻⁶ cm/s | 7.4 | 14 nM | 566 nM
9 | CC#Cc1cncc(-c2cccc(C#N)c2N2CCC(c3nncn3C)CC2)c1 [compound 10] | – | – | – | – | – | – | 348 nM | 75 nM | 25 ×10⁻⁶ cm/s | 2.2 | 18 nM | 692 nM
10 | Cn1cnnc1C1CCN(c2c(C#N)cccc2-c2cncc(F)c2)CC1 [compound 17] | – | – | – | – | – | – | 199 nM | 77 nM | 7.3 ×10⁻⁶ cm/s | 7.4 | 15 nM | 1170 nM
11 | Cn1cnnc1C1CCN(c2c(C#N)cccc2-c2cncc(-c3ncco3)c2)CC1 [compound 29] | – | – | – | – | – | – | 81 nM | 25 nM | 3.1 ×10⁻⁶ cm/s | 16.5 | 3 nM | 121 nM
12 | Cn1cnnc1C1CCN(c2c(C#N)cccc2-c2cnc(F)c(F)c2)CC1 [compound 20] | – | – | – | – | – | – | 53 nM | 28 nM | 22 ×10⁻⁶ cm/s | 3 | 5 nM | 147 nM
13 | COc1cc(F)ncc1-c1cccc(C#N)c1N1CCC(c2nncn2C)CC1 [compound 44] | – | – | – | – | – | – | 121 nM | 18 nM | 11 ×10⁻⁶ cm/s | 1.5 | 4 nM | 109 nM
14 | Cn1cnnc1C1(F)CCN(c2c(C#N)cccc2-c2cnc3ncccc3c2)CC1 [compound 68] | – | – | – | – | – | – | 274 nM | 13 nM | 0.6 ×10⁻⁶ cm/s | 47.5 | 7 nM | 366 nM

Now from value to compound:

Row | IC50 [1, 4] | IC50 (QPCT; prior art compounds, Table 3) | Permeability A-B (Caco-2 cells) | efflux ratio (Caco-2 cells; Caco-2) | IC50 (QPCTL; prior art compounds, Table 3) | IC50 [2, 5] | IC50 [1, 6] | IC50 (QPCT; [7]) | Papp A→B [3] | efflux ratio [3] | IC50 (QPCTL; [7]) | IC50 [2, 8] | Structure (SMILES)
15 | – | – | – | – | – | – | 22 nM | 3 nM | 40 ×10⁻⁶ cm/s | 0.7 | 2 nM | 16 nM | Cn1cnnc1C1(F)CCN(c2c(C#N)cccc2-c2cnn3nc(-c4cccc(Cl)c4)ccc23)CC1 [compound 79]
16 | – | – | – | – | – | – | 22 nM | 1 nM | 8 ×10⁻⁶ cm/s | 8.9 | 2 nM | 23 nM | Cn1cnnc1C1(F)CCN(c2c(C#N)cccc2-c2cnc3nn(C(C)(C)C(F)(F)F)cc3c2)CC1 [compound 61]
17 | – | – | – | – | – | – | 9 nM | 3 nM | 3.3 ×10⁻⁶ cm/s | 14.5 | 1 nM | 13 nM | Cn1cnnc1C1(F)CCN(c2c(C#N)cccc2-c2cnc3nnn(Cc4ccccc4)c3c2)CC1 [compound 63]
18 | – | – | – | – | – | – | 18 nM | 12 nM | 24 ×10⁻⁶ cm/s | 2.4 | 2 nM | 51 nM | Cn1cnnc1C1CCN(c2c(C#N)cccc2-c2cnc(F)c(OCc3ccccc3)c2)CC1 [compound 35]
19 | – | – | – | – | – | – | 19 nM | 5 nM | 29 ×10⁻⁶ cm/s | 1.2 | 2 nM | 61 nM | Cn1cnnc1C1(F)CCN(c2c(C#N)cccc2-c2cnc3nn(Cc4ccccc4)nc3c2)CC1 [compound 64]
20 | – | – | – | – | – | – | 27 nM | 5 nM | 39 ×10⁻⁶ cm/s | 0.7 | 1 nM | 27 nM | Cn1cnnc1C1CCN(c2c(C#N)cccc2-c2cnn3nc(-c4cccc(Cl)c4)ccc23)CC1 [compound 81]
21 | – | – | – | – | – | – | 27 nM | 1 nM | 2.7 ×10⁻⁶ cm/s | 24.4 | 2 nM | 49 nM | Cn1cnnc1C1(F)CCN(c2c(C#N)cccc2-c2cnc3nc(C(C)(C)C)cn3c2)CC1 [compound 71]
22 | – | – | – | – | – | – | 33 nM | 1 nM | 0.5 ×10⁻⁶ cm/s | 75.5 | 1 nM | 21 nM | Cn1cnnc1C1CCN(c2c(C#N)cccc2-c2cnc3nn(C(C)(C)C)cc3c2)CC1 [compound 50]
23 | – | – | – | – | – | – | 26 nM | 1 nM | 1.7 ×10⁻⁶ cm/s | 14.1 | 1 nM | 18 nM | Cn1cnnc1C1(F)CCN(c2c(C#N)cccc2-c2cnc3nc(C(F)(F)F)cn3c2)CC1 [compound 74]
24 | – | – | – | – | – | – | 16 nM | 3 nM | 15 ×10⁻⁶ cm/s | 1.1 | 2 nM | 67 nM | Cn1cnnc1C1(F)CCN(c2c(C#N)cccc2-c2ccnnc2)CC1 [compound 52]
25 | – | – | – | – | – | – | 47 nM | 3 nM | 55 ×10⁻⁶ cm/s | 1.3 | 1 nM | 102 nM | Cc1cc(F)ncc1-c1cccc(C#N)c1N1CCC(F)(c2nncn2C)CC1 [compound 83]
26 | – | – | – | – | – | – | 17 nM | 3 nM | 41 ×10⁻⁶ cm/s | 1.6 | 2 nM | 63 nM | Cc1cc(-c2cccc(C#N)c2N2CCC(F)(c3nncn3C)CC2)cnc1F [compound 82]
